Entries after “also recorded” stand apart in the source; their conditions may differ. Like-named read-outs stand apart in the source and are kept apart here.
Assays:
[1] = system: microsomal membranes prepared from bovine RPE; test: Retinyl ester formation and isomerization from [3H]retinols in microsomal membranes from bovine RPE; format: biochemical
Description: The retinyl-ester content of fresh bovine ocular tissues were analyzed. Bovine RPE contained approximately 95% all-trans-retinyl esters (atRE) and 5% 1cRE. No retinyl esters were detectable in bovine retinas. When [^3H]atROL was added to microsomal membranes prepared from bovine RPE, the formation of [3H]atRE, and subsequent formation of [^3H]11cROL were observed. […] The isomeric inhibitor, 11-cis-retinyl α-bromoacetate (cRBA) was also synthesized. This agent suppressed the formation of [^3H]11cRE from [^3H]11cROL added to bovine-RPE membranes, but had no effect on the synthesis of [^3H]atRE or [^3H]11cROL from added [^3H]atROL. No ester-synthase activity was detected in bovine retinas. The results of these studies on rod-dominant bovine eyes are in full accord with the published results of other investigators (Rando et al., 1992; Saari et al., 1994; Crouch et al., 1996; Trehan et al., 1990).

[2] = system: membranes from chicken and ground squirrel retinas; test: Retinyl ester formation and isomerization from [3H]atROL in membranes from chicken and ground squirrel retinas; format: biochemical; settings: chicken and ground squirrel retina membranes
Description: There are striking differences in retinyl-ester content and retinoid turnover upon analysis of ocular tissues from cone-dominant ground squirrel and chicken. Chicken retinas contained 60% 11cRE and 40% atRE, while ground-squirrel retinas contained 80% 11cRE and 20% atRE. The ratio of cones to rods is 60:40 in chicken (Meyer et al., 1973), 96:4 in ground squirrel (West et al., 1975), 3:97 in mouse (Carter-Dawson et al., 1979), and 8:92 in bovine retina (Krebs et al., 1982). Thus, across multiple species, the level of 11cRE in retina is loosely correlated with the ratio of cone to rod photoreceptors. […] During time-course studies, [^3H]11cROL always preceded the appearance of [3H]11cRE. […] In particular, this new all-trans-retinol isomerase (atRI) is insensitive to tRBA. This insensitivity rules out the trivial explanation of RPE contamination in retinal membrane preparations. […] Unlike LRAT, this new ester synthase is not inhibited by tRBA or cRBA, and has high specificity for the 11cROL substrate.

LRAT = target: T1, LRAT (Bos taurus, UniProt Q9BGL2); settings: Trehan et al., 1990; cited from earlier work
T1 construct: microsomal membranes prepared from bovine RPE; from tissue; host or cells: bovine retinal pigment epithelium, microsomal membranes
T1 sequence (Q9BGL2 1-230): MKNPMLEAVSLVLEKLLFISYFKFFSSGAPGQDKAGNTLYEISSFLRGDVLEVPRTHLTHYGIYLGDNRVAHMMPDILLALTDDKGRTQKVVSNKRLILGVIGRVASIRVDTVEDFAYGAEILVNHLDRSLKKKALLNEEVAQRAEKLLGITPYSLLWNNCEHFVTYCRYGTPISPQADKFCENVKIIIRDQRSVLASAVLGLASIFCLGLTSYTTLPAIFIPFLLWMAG

abcr−/− mice = test: A2E and A2PE-H2 levels in ocular tissues of abcr−/− mice treated with isotretinoin (HPLC); format: in vivo, mouse
Description: FIG. 7—A2E and A2PE-H2 in abcr−/− ocular tissues following treatment with isotretinoin. A2E and A2PE-H2 were extracted from the indicated tissues and analyzed by HPLC as previously described (Mata et al., 2000; Weng et al., 1999). (FIG. 7A) A2E levels in abcr−/− RPE from four-month-old mice treated for one month with isotretinoin at 40 mg/kg/day (4-mo 13cRA), four-month-old mice treated with DMSO carrier alone (4-mo DMSO), and three-month-old untreated mice (3-mo untreated). (FIG. 7B) A2PE-H2 levels in abcr−/− RPE from the same animals in panel (A) plus four-month-old untreated mice (4-mo untreated). (FIG. 7C) A2PE-H2 levels in abcr−/− retinas from the same animals in panel (B). All data are shown as milliabsorption units (mAU) at the indicated wavelengths±SEM (n=3).
Tissue Preparation and Extraction. Mouse and human tissues were homogenized in 1 ml of PBS. For analysis of mouse outer segments, dissected retinas were shaken on a vortex mixer in 8% Optiprep/Ringer's buffer and fractionated by centrifugation through an Optiprep step-gradient according to the procedure of Tsang et al. (1998). Collected outer segments were suspended in 1 ml PBS and homogenized. 1 ml of chloroform/methanol (2:1, v/v) was added to each homogenate. Phospholipids and chloroform-soluble fluorophores were extracted twice from the samples following addition of 4 ml of chloroform and 3 ml water. The pooled organic phases were dried under a stream of argon. Sample residues were resuspended in 200- 400 μl of hexane, and analyzed by HPLC.
Sample extracts were analyzed by normal phase HPLC using an HP 1100 liquid chromatograph with a photodiode array detector. Chromatography conditions were as previously described (Birnbach et al., 1994) using a silica column (Microsorb 5 μm Si, 250×4.6 mm) and the mobile phase: hexane/2-propanol/ethanol/25 mM potassium phosphate/acetic acid (485:376:100:40:0.275, v/v; pH 7.0). For A2PE-H2 purification, the water content was reduced to 2.5% for better resolution of fatty acyl esters. Spectra for the eluted peaks were corrected by subtracting the nearest integrated baseline to remove solvent absorption. A2-E, phosphatidylethanolamine, and all-trans-RAL were quantitated by comparing the sample peak-area to a calibration curve constructed with authentic standards (18:0-22:6 for the phosphatidylethanolamine standard) (Birnbach et al., 1994). […] In Table 6, APE and protonated-APE were quantitated using published molar extinction coefficients (Anderson et al., 1996).
Three-month-old abcr−/− mice were treated with isotretinoin (13 cis retinoic acid) for one month.

wild-type mice = test: Retinoid profile after intraperitoneal injection of isotretinoin into light-adapted wild-type mice; format: in vivo, mouse
Description: (§1) Long delays in 11cRAL regeneration are also observed after a photobleach in mice treated with isotretinoin. This alteration in the retinoid profile is similar to the pattern in 11cRDH knockout-mice (Driessen et al., 2000).

mice [3] = test: Photoreceptor degeneration by histologic or electroretinographic (ERG) analysis after prolonged isotretinoin treatment; format: in vivo, mouse; settings: prolonged treatment at doses up to 50 mg/kg/day (25× the maximum human dose)
Description: as §1

11cRDH = settings: Law et al., 1989, Gamble et al., 1999, cited from earlier work
mice [4] = settings: Yuschak et al., 1993; cited from earlier work
[5] = humans; cited from earlier work
humans = settings: clinical use for acne; due to impaired regeneration of rhodopsin; cited from earlier work
[6] = Isotretinoin in retina and RPE by HPLC analysis after intraperitoneal injection
[7] = system: patients with neovascularisation extending under the center of the retina; settings: cited from earlier work
[8] = system: patients with retinitis pigmentosa (RP) and related retinal degenerations; settings: supplemental lutein; Dagnelie et al., 2000; cited from earlier work
rodent model = settings: cited from earlier work
[9] = light-adapted wild-type mice, intraperitoneal injection

## CC1=C(/C=C/C(C)=C/C=C\C(C)=C/COC(=O)CBr)C(C)(C)CCC1 [cRBA, 11-cis-retinyl α-bromoacetate]
[1]
  formation of [3H]11cRE from added [3H]11cROL: suppressed
  formation of atRE and 11cROL from added [3H]atROL: no effect
[2]
  synthesis of [3H]11cRE: no effect

## CC1=C(/C=C/C(C)=C/C=C/C(C)=C/COC(=O)CBr)C(C)(C)CCC1 [tRBA, all-trans-retinyl α-bromoacetate]
[1]
  formation of [3H]11cRE from added [3H]11cROL: completely inhibited
  formation of atRE and 11cROL from added [3H]atROL: completely suppressed
[2]
  formation of [3H]11cROL or [3H]11cRE from added [3H]atROL: no effect
  formation of [3H]atRE from added [3H]atROL: completely suppressed
LRAT
  inhibition of LRAT: potent inhibitor

## CC1=C(/C=C/C(C)=C/C=C/C(C)=C\C(=O)O)C(C)(C)CCC1 [isotretinoin, 13-cis-retinoic acid]
abcr−/− mice; abcr−/− mice, isotretinoin 40 mg/kg/day for one month, FIG. 7A
  suppression of A2E accumulation in RPE: approximately two-fold
abcr−/− mice; abcr−/− mice, isotretinoin 40 mg/kg/day for one month, FIG. 7B
  suppression of A2PE-H2 accumulation in RPE: approximately three-fold
abcr−/− mice; four-month-old abcr−/− mice after one month of isotretinoin, FIG. 7C
  A2PE-H2 in retina: near absence; also recorded: virtually undetectable
abcr−/− mice; four-month-old abcr−/− mice treated for one month with isotretinoin at 40 mg/kg/day
  A2E in RPE, level relative to sham-treated (DMSO) controls: approximately 50%
wild-type mice; [9]
  11cRAL and atRAL in outer segments: Profound depletion
  11cRE in RPE cells: accumulation
wild-type mice; mice treated with isotretinoin
  11cRAL regeneration after a photobleach: Long delays
Mice [3]
  photoreceptor degeneration by histologic or electroretinographic (ERG) analysis: No photoreceptor degeneration
11cRDH
  inhibition of 11cRDH in RPE: potent inhibitor
11cRDH; listed as Isotretinoin
  inhibition of 11cRDH in RPE: inhibit 11cRDH
Mice [4]
  tolerated dose: up to 400 mg/kg/day
[5]
  serum half-life: 10 to 20 h
humans
  side effect night blindness: common side effect
[6]; five minutes following an intraperitoneal injection
  detection in retina and RPE: detected
[6]; one hour following a single injection at 4 mg/kg
  tissue concentrations: micromolar range

## verteporfin
[7]; at one year, reduced from 61%
  risk of moderate and severe vision loss: 33%
[7]; at two years, reduced from 69%
  risk of moderate and severe vision loss: 41%

## CC1=C[C@H](O)CC(C)(C)[C@H]1/C=C/C(C)=C/C=C/C(C)=C/C=C/C=C(C)/C=C/C=C(C)/C=C/C1=C(C)C[C@@H](O)CC1(C)C [lutein]
[8]
  effect on vision: short term improvements in vision

B1: Glial Derived Neurotrophic Factor: a survival factor which has slowed degeneration in a rodent model (protein, UniProt P39905 78-211, looked up)
Glial cell line-derived …: SPDKQMAVLPRRERNRQAAAANPENSRGKGRRGQRGKNRGCVLTAIHLNVTDLGLGYETKEELIFRYCSGSCDAAETTYDKILKNLSRNRRLVSDKVGQACCRPIAFDDDLSFLDDNLVYHILRKHSAKRCGCI
Rodent model
  effect on retinal degeneration: slowed degeneration

— patent US20030032078A1, “Methods and compositions for the treatment of macular and retinal degenerations” (Board of Regents, The University of Texas System, priority 2001, published 2003)
